The record followed here is BindingDB's records for doi:10.1021/cb400200h (University of Oxford, 2013).

What is called pIC50 is −log10 of the IC50, conventionally taken in molar units. A higher pIC50 goes with a small IC50.

The test concerns the target Peptidoglycan D,D-transpeptidase FtsI (Pseudomonas aeruginosa (strain PA7), UniProt A6VB91). Kind of test: IC50 Assay. Particulars: pH 7.2; 25 °C. The procedure: An appropriate amount of enzyme (4uM) was pre-incubated with the (5R)- or 5(S)-penicilloic acid in the assay buffer (50mM HEPES-NaOH buffer (pH 7.2) supplemented with 0.01% Triton-100) at room temperature for 10 min. Nitrocefin (100uM) was added to initiate the assay. The IC50 values were determined using the software package Graph Prism 5.01.

pIC50: −log10 of the molar value.

Chain of Peptidoglycan D,D-transpeptidase FtsI (A6VB91 whole entry): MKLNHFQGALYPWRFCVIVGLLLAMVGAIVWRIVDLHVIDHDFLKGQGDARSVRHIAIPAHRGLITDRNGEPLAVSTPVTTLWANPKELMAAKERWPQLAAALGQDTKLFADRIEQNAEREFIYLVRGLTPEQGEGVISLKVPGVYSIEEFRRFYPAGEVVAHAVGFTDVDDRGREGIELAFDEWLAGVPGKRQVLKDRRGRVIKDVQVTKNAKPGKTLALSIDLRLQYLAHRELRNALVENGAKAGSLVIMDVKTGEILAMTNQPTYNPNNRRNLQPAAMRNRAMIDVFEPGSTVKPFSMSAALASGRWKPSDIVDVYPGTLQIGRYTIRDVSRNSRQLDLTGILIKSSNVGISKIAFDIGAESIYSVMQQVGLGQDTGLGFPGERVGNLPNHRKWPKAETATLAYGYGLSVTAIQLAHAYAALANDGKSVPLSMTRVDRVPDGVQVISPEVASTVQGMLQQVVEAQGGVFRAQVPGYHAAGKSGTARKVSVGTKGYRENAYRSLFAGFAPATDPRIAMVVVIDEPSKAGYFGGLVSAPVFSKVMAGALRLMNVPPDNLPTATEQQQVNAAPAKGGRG

Molecule `CCN1CCN(C(=O)N[C@@H](C(=O)N[C@@H]2C(=O)N3[C@@H]2SC(C)(C)[C@@H]3C(=O)O)c2ccccc2)C(=O)C1=O` showed a pIC50 of 6.78. With `CCN1CCN(C(=O)N[C@@H](C(=O)N[C@H](C(=O)O)[C@@H]2N[C@@H](C(=O)O)C(C)(C)S2)C2C=CC=CC2)C(=O)C1=O` (stereo partly drawn) [(5R)-PA] the figure was 3.71; with `CCN1CCN(C(=O)N[C@@H](C(=O)N[C@H](C(=O)O)[C@H]2N[C@@H](C(=O)O)C(C)(C)S2)C2C=CC=CC2)C(=O)C1=O` (stereo partly drawn) [(5S)-PA], 3.90.
